# Results taken from PubChem BioAssay AID220 (DTP/NCI, 2004).
# Several values for one entry are separate records, joined by “and”; a condition that tells them apart may be missing. Identical values can stand only once. Results filed as inconclusive are left out.
# Test system: CD8F1 mice, subcutaneous mammary adenocarcinoma, T/C%
# Assay: NCI In Vivo Anticancer Drug Screen. Data for tumor model Mammary Adenocarcinoma CD8F1 (subcutaneous) in CD8F1
# Details: higher = larger tumour
# How it was run: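 Tumor-bearing mice, transplantable model; readout survival or tumor size; value = treated (T) / vehicle control (C).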
# [1] = endpoint: median tumor weight (est.), dose: 2.0 mg/kg/injection, schedule: Q07DX005 (ip), vehicle: saline
# [2] = endpoint: median tumor weight (est.), dose: 12.5 mg/kg/injection, schedule: Q07DX005 (ip), vehicle: Klucel (hydroxypropylcellulose) (HPC)
# [3] = endpoint: median tumor weight (est.), dose: 25.0 mg/kg/injection, schedule: Q07DX005 (ip), vehicle: Klucel (hydroxypropylcellulose) (HPC)
# [4] = endpoint: median tumor weight (est.), dose: 3.12 mg/kg/injection, schedule: Q07DX005 (ip), vehicle: saline
# [5] = endpoint: median tumor weight (est.), dose: 6.25 mg/kg/injection, schedule: Q07DX005 (ip), vehicle: saline
# [6] = endpoint: median tumor weight (est.), dose: 12.5 mg/kg/injection, schedule: Q07DX005 (ip), vehicle: saline
# [7] = endpoint: median tumor weight (est.), dose: 25.0 mg/kg/injection, schedule: Q07DX005 (ip), vehicle: saline
# [8] = endpoint: median tumor weight (est.), dose: 50.0 mg/kg/injection, schedule: Q07DX005 (ip), vehicle: saline
smiles,measurement,setting,value
COc1cc2c(cc1O)N=C[C@@H]1CCC(O)N1C2=O (mixture of isomers),T/C,[1],103 % of control
same,T/C,"endpoint: median tumor weight (est.), dose: 4.0 mg/kg/injection, schedule: Q07DX005 (ip), vehicle: saline",79 % of control
same,T/C,"endpoint: median tumor weight (est.), dose: 8.0 mg/kg/injection, schedule: Q07DX005 (ip), vehicle: saline",160 % of control
Cc1ccc(C2NC(=O)c3ccccc3N2)s1 (centres undefined),T/C,"endpoint: mean tumor weight, dose: 25.0 mg/kg/injection, schedule: Q07DX005 (ip), vehicle: Klucel (hydroxypropylcellulose) (HPC)",82 % of control
same,T/C,"endpoint: mean tumor weight, dose: 50.0 mg/kg/injection, schedule: Q07DX005 (ip), vehicle: Klucel (hydroxypropylcellulose) (HPC)",88 % of control
same,T/C,"endpoint: mean tumor weight, dose: 100.0 mg/kg/injection, schedule: Q07DX005 (ip), vehicle: Klucel (hydroxypropylcellulose) (HPC)",106 % of control
same,T/C,"endpoint: mean tumor weight, dose: 200.0 mg/kg/injection, schedule: Q07DX005 (ip), vehicle: Klucel (hydroxypropylcellulose) (HPC)",105 % of control
same,T/C,"endpoint: mean tumor weight, dose: 400.0 mg/kg/injection, schedule: Q07DX005 (ip), vehicle: Klucel (hydroxypropylcellulose) (HPC)",123 % of control
same,T/C,[2],78 % of control
same,T/C,[3],14 % of control
same,T/C,"endpoint: median tumor weight (est.), dose: 50.0 mg/kg/injection, schedule: Q07DX005 (ip), vehicle: Klucel (hydroxypropylcellulose) (HPC)",110 % of control
O=c1cc(-c2ccccc2)[nH]c2c1CCCC2,T/C,"endpoint: median tumor weight change, dose: 1000.0 mg/kg/injection, schedule: Q01DX001 (ip), vehicle: saline with Tween-80",78 % of control
O=C(Nc1ccc(C2=NCCN2)cc1)c1ccc(C(=O)Nc2ccc(C3=NCCN3)cc2)c(Cl)c1,T/C,"endpoint: mean tumor weight, dose: 6.25 mg/kg/injection, schedule: Q07DX004 (ip), vehicle: saline with Tween-80",70 % of control
same,T/C,"endpoint: mean tumor weight, dose: 12.5 mg/kg/injection, schedule: Q07DX004 (ip), vehicle: saline with Tween-80",77 % of control
same,T/C,"endpoint: mean tumor weight, dose: 25.0 mg/kg/injection, schedule: Q07DX004 (ip), vehicle: saline with Tween-80",71 % of control
COC1=C(C)C(=O)C2=C(C1=O)C1C3CC4=C(C(=O)C(OC)=C(C)C4=O)C(CNC(=O)C(C)=O)N3C(C#N)C(C2)N1C (centres undefined),T/C,"endpoint: median tumor weight change, dose: 0.62 mg/kg/injection, schedule: Q01DX001 (ip), vehicle: Klucel (hydroxypropylcellulose) (HPC)",114 % of control
same,T/C,"endpoint: median tumor weight change, dose: 0.63 mg/kg/injection, schedule: Q01DX001 (ip), vehicle: Klucel (hydroxypropylcellulose) (HPC)",119 % of control
same,T/C,"endpoint: median tumor weight change, dose: 1.2 mg/kg/injection, schedule: Q01DX001 (ip), vehicle: Klucel (hydroxypropylcellulose) (HPC)",109 % of control
same,T/C,"endpoint: median tumor weight change, dose: 1.25 mg/kg/injection, schedule: Q01DX001 (ip), vehicle: Klucel (hydroxypropylcellulose) (HPC)",96 % of control
same,T/C,"endpoint: median tumor weight change, dose: 2.5 mg/kg/injection, schedule: Q01DX001 (ip), vehicle: Klucel (hydroxypropylcellulose) (HPC)",98 % of control and 114 % of control
COC1N(C2CC(O)C(CO)O2)C(=O)NC(=O)C1(F)Br (centres undefined),T/C,[4],74 % of control
same,T/C,[5],54 % of control
same,T/C,"endpoint: median tumor weight (est.), dose: 6.25 mg/kg/injection, schedule: Q07DX005 (ip), vehicle: suspension in saline",67 % of control
same,T/C,[6],28 % of control
same,T/C,"endpoint: median tumor weight (est.), dose: 12.5 mg/kg/injection, schedule: Q07DX005 (ip), vehicle: suspension in saline",113 % of control
same,T/C,[7],46 % of control
same,T/C,"endpoint: median tumor weight (est.), dose: 25.0 mg/kg/injection, schedule: Q07DX005 (ip), vehicle: suspension in saline",66 % of control
same,T/C,[8],28 % of control
same,T/C,"endpoint: median tumor weight (est.), dose: 50.0 mg/kg/injection, schedule: Q07DX005 (ip), vehicle: suspension in saline",45 % of control
same,T/C,"endpoint: median tumor weight (est.), dose: 100.0 mg/kg/injection, schedule: Q07DX005 (ip), vehicle: saline",5 % of control
same,T/C,"endpoint: median tumor weight (est.), dose: 100.0 mg/kg/injection, schedule: Q07DX005 (ip), vehicle: suspension in saline",45 % of control
same,T/C,"endpoint: median tumor weight (est.), dose: 200.0 mg/kg/injection, schedule: Q07DX005 (ip), vehicle: suspension in saline",57 % of control
c1ccc([C@H]2CN3CCSC3=N2)cc1,T/C,"endpoint: mean tumor weight, dose: 12.5 mg/kg/injection, schedule: Q07DX005 (ip), vehicle: saline",107 % of control
same,T/C,"endpoint: mean tumor weight, dose: 25.0 mg/kg/injection, schedule: Q07DX005 (ip), vehicle: saline",105 % of control
same,T/C,[6],92 % of control
O=NN(CCCl)C(=O)NC1OC(CO)C(O)C(O)C1O (centres undefined),T/C,"endpoint: median tumor weight (est.), dose: 1.25 mg/kg/injection, schedule: Q07DX005 (ip), vehicle: saline",113 % of control
same,T/C,"endpoint: median tumor weight (est.), dose: 2.5 mg/kg/injection, schedule: Q07DX005 (ip), vehicle: saline",91 % of control
same,T/C,"endpoint: median tumor weight (est.), dose: 5.0 mg/kg/injection, schedule: Q07DX005 (ip), vehicle: saline",106 % of control
same,T/C,"endpoint: median tumor weight (est.), dose: 10.0 mg/kg/injection, schedule: Q07DX005 (ip), vehicle: saline",29 % of control
OCCOCCN1CCN(CCCN2c3ccccc3Sc3ccc(C(F)(F)F)cc32)CC1,T/C,[4],53 % of control
same,T/C,[5],97 % of control
same,T/C,[6],95 % of control
same,T/C,[7],71 % of control
same,T/C,[8],97 % of control
CC[n+]1c(-c2ccccc2)c2cc(N)ccc2c2ccc(N)cc21,T/C,"endpoint: median tumor weight (est.), dose: 10.0 mg/kg/injection, schedule: Q07DX005 (ip), vehicle: water",85 % of control
same,T/C,"endpoint: median tumor weight (est.), dose: 20.0 mg/kg/injection, schedule: Q07DX005 (ip), vehicle: water",105 % of control
Cn1/c2cc/c1=C(\c1ccc(S(=O)(=O)O)cc1)c1ccc([n-]1)/C(c1ccc(S(=O)(=O)O)cc1)=c1/cc/c([nH]1)=C(\c1ccc(S(=O)(=O)O)cc1)c1ccc([n-]1)/C=2c1ccc(S(=O)(=O)O)cc1.O.O=S(=O)(O)C(F)(F)F.[Cu+2],T/C,"endpoint: median tumor weight change, dose: 62.5 mg/kg/injection, schedule: Q01DX001 (ip), vehicle: saline",124 % of control
COc1cc2cc(c1Cl)N1CC(O)C(C)(O)C(=O)NC(C)C(=O)OC(CC1=O)C1(C)OC1C(C)C1CC(O)(NC(=O)O1)C(OC)/C=C\C=C(\C)C2OC (centres undefined),T/C,"endpoint: median tumor weight change, dose: 8.0 micrograms/kg/injection, schedule: Q01DX001 (ip), vehicle: distilled water + alcohol",101 % of control
same,T/C,"endpoint: median tumor weight change, dose: 16.0 micrograms/kg/injection, schedule: Q01DX001 (ip), vehicle: distilled water + alcohol",111 % of control
same,T/C,"endpoint: median tumor weight change, dose: 64.0 micrograms/kg/injection, schedule: Q01DX001 (ip), vehicle: distilled water + alcohol",121 % of control
O=C(O)CCCc1ccc(N(CCCl)CCCl)cc1,T/C,[1],234 % of control and 83 % of control
same,T/C,"endpoint: median tumor weight (est.), dose: 4.0 mg/kg/injection, schedule: Q07DX005 (ip), vehicle: saline with Tween-80",77 % of control
same,T/C,"endpoint: median tumor weight (est.), dose: 7.5 mg/kg/injection, schedule: Q07DX005 (ip), vehicle: Klucel (hydroxypropylcellulose) (HPC)",88 % of control
same,T/C,"endpoint: median tumor weight (est.), dose: 8.0 mg/kg/injection, schedule: Q07DX005 (ip), vehicle: saline with Tween-80",46 % of control
same,T/C,"endpoint: median tumor weight (est.), dose: 15.0 mg/kg/injection, schedule: Q07DX005 (ip), vehicle: Klucel (hydroxypropylcellulose) (HPC)",26 % of control
same,T/C,"endpoint: median tumor weight (est.), dose: 16.0 mg/kg/injection, schedule: Q07DX005 (ip), vehicle: saline with Tween-80",43 % of control
same,T/C,"endpoint: median tumor weight (est.), dose: 30.0 mg/kg/injection, schedule: Q07DX005 (ip), vehicle: Klucel (hydroxypropylcellulose) (HPC)",22 % of control
same,T/C,"endpoint: median tumor weight (est.), dose: 32.0 mg/kg/injection, schedule: Q07DX005 (ip), vehicle: saline with Tween-80",16 % of control
same,T/C,"endpoint: median tumor weight (est.), dose: 32.0 mg/kg/injection, schedule: Q07DX005 (ip), vehicle: saline",3 % of control and 14 % of control
same,T/C,"endpoint: median tumor weight change, dose: 16.0 mg/kg/injection, schedule: Q01DX001 (ip), vehicle: saline with Tween-80",57 % of control
same,T/C,"endpoint: median tumor weight change, dose: 32.0 mg/kg/injection, schedule: Q01DX001 (ip), vehicle: saline with Tween-80",62 % of control
same,T/C,"endpoint: median tumor weight change, dose: 64.0 mg/kg/injection, schedule: Q01DX001 (ip), vehicle: saline with Tween-80",38 % of control
COc1nc(C(Cl)(Cl)Cl)c(Cl)c(OC)c1Cl,T/C,"endpoint: median tumor weight change, dose: 60.0 mg/kg/injection, schedule: Q01DX005 (ip), vehicle: Klucel (hydroxypropylcellulose) (HPC)",32 % of control
same,T/C,"endpoint: median tumor weight change, dose: 62.5 mg/kg/injection, schedule: Q01DX001 (ip), vehicle: Klucel (hydroxypropylcellulose) (HPC)",174 % of control
same,T/C,"endpoint: median tumor weight change, dose: 125.0 mg/kg/injection, schedule: Q01DX001 (ip), vehicle: Klucel (hydroxypropylcellulose) (HPC)",81 % of control and 95 % of control
same,T/C,"endpoint: median tumor weight change, dose: 200.0 mg/kg/injection, schedule: Q01DX005 (ip), vehicle: Klucel (hydroxypropylcellulose) (HPC)",-15 % of control
CCN(CC)CCNc1ccc(C)c2sc3ccc(O)cc3c(=O)c12,T/C,"endpoint: median tumor weight change, dose: 62.5 mg/kg/injection, schedule: Q01DX001 (ip), vehicle: saline with Tween-80",59 % of control
same,T/C,"endpoint: median tumor weight change, dose: 125.0 mg/kg/injection, schedule: Q01DX001 (ip), vehicle: saline with Tween-80",169 % of control
same,T/C,"endpoint: median tumor weight change, dose: 684.0 mg/kg/injection, schedule: Q01DX001 (ip), vehicle: saline with Tween-80",37 % of control
CC(=O)OCC1OC(OC2=C(CC=C(C)C)C(=O)c3ccccc3C2=O)C(OC(C)=O)C(OC(C)=O)C1OC(C)=O (centres undefined),T/C,[2],75 % of control and 98 % of control
same,T/C,[3],69 % of control
same,T/C,"endpoint: median tumor weight (est.), dose: 100.0 mg/kg/injection, schedule: Q07DX005 (ip), vehicle: Klucel (hydroxypropylcellulose) (HPC)",113 % of control
same,T/C,"endpoint: median tumor weight (est.), dose: 200.0 mg/kg/injection, schedule: Q07DX005 (ip), vehicle: Klucel (hydroxypropylcellulose) (HPC)",107 % of control
same,T/C,"endpoint: median tumor weight (est.), dose: 400.0 mg/kg/injection, schedule: Q07DX005 (ip), vehicle: Klucel (hydroxypropylcellulose) (HPC)",79 % of control
